For 24 compounds, CC50 and EC50 results are on record in patent US20240018166A1, “SULFONYL UREA NLRP3 INFLAMMASOME INHIBITORS” (Venatorx Pharmaceuticals, Inc., priority 2020, published 2024).

Series [1] can be described thus: MTT cell viability assay, THP-1 cells. It is filed as cell-based. The settings on record: human, unstimulated THP-1 cells, read-out: THP-1 Cytotoxicity CC50. The procedure: In order to assess the cytotoxicity of the compounds, an MTT cell viability assay was performed in either unstimulated THP-1 or HepG2 cells as follows. 5×10^4 THP-1 or 5×10^3 HepG2 cells were seeded into each well of a 96-well plate in 90 μL of media. Compounds were added to cells as described for the IL-10 assay and returned to the incubator for an additional 72 hours. Next, 25 μL of MTT solution (5 mg/mL in sterile PBS) was added to each well. Plates were incubated for 3 hours at 37° C., 5% CO2. Next, for THP-1 cells, 100 μl of MTT solubilization solution (40% Dimethylformamide, 2% glacial acetic acid, 16% sodium dodecyl sulfate) was then added to each well and plates were incubated at room temperature in the dark overnight. For HepG2 cells, media was aspirated, 50 μL of DMSO was added and plates were mixed briefly with an orbital plate shaker. Absorbance at 570 nm was measured using a Perkin-Elmer EnVision plate reader.
Absorbance values were converted to percentage of vehicle-treated controls. Data was then analyzed using a non-linear regression (variable slope (four-parameter)) equation in GraphPad Prism 7.0.
Table 2 provides THP-1 cytotoxicity assay CC50 values for example compounds. A indicates CC50>10 μM; B indicates CC50 between 1 and 10 μM (inclusive); C indicates CC50<1 μM. NT, not tested.
On the technique in general: Formazan colour is commonly taken as a measure of viable cells.

The subject of a further series is IL-1β. The series is described as follows: IL-1β inhibition assay (ELISA/HTRF of culture supernatants). In kind it is cell-based. The settings on record: Homo sapiens, PMA-differentiated THP-1 cells, tested 10 μM to 0.003 μM. On the procedure: Human monocyte-like THP-1 cells were grown in RPMI media supplemented with 10% FBS (growth media) at 37° C., 5% CO2. Cell cultures were passaged every three days and maintained at a density of 5×10^5 to 1×10^6 cells per mL.
Compounds were prepared as 10 mM stock solutions in 100% DMSO. […] Each 200× dilution was then diluted 20-fold in growth media (step down dilution) to yield a 10× final assay concentration range. All compounds were tested over a final assay concentration range of 10 μM to 0.003 μM.
The level of IL-10 in supernatants from PMA-differentiated THP-1 cells was determined by ELISA using either the R&D Systems Human IL-1 beta/IL-1F2 Quantikine ELISA or the cisbio HTRF human IL 1 beta kit. Manufacturer's protocols were followed without deviation.
Background values were subtracted and resulting values were converted to percentage of vehicle-treated controls. Data was analyzed via GraphPad Prism 7.0 using a non-linear regression (variable slope (four-parameter)) equation.
Table 2 provides IL-10 ELISA EC50 values for example compounds. A indicates EC50>10 μM; B indicates EC50 between 1 and 10 μM (inclusive); C indicates EC50<1 μM.
(In general: In an ELISA, binding on a coated surface is turned into a signal by an enzyme label.)

For orientation: CC50 means the concentration at which the toxic effect on the cells reaches its halfway point. For orientation: EC50 means the concentration at which the effect is half-maximal. With `O=C(Nc1c2c(cc3c1CCC3)CCC2)NS(=O)(=O)c1cccc(B(O)O)c1` [Example 1, (3-(N-((1,2,3,5,6,7-hexahydro-s-indacen-4-yl)carbamoyl)sulfamoyl)phenyl)boronic acid], the CC50 at 72 h in series [1] is greater than 10 µM. The compound further registered an EC50 with IL-1β of 1 to 10 µM.
The corresponding values for `CC1(C)[C@@H]2C[C@H]3OB(c4cccc(S(=O)(=O)NC(=O)Nc5c6c(cc7c5CCC7)CCC6)c4)O[C@@]3(C)[C@H]1C2` [Example 2, N-((1,2,3,5,6,7-hexahydro-s-indacen-4-yl)carbamoyl)-3-((3aS,4S,6S,7aR)-3a,5,5-trimethylhexahydro-4,6-methanobenzo[d][1,3,2]dioxaborol-2-yl)benzenesulfonamide] are greater than 10 µM and 1 to 10 µM.
The corresponding values for `CC(C)c1cccc(C(C)C)c1NC(=O)NS(=O)(=O)c1ccc(B(O)O)cc1` [Example 3, (4-(N-((2,6-diisopropylphenyl)carbamoyl)sulfamoyl)phenyl)boronic acid] are greater than 10 µM and 1 to 10 µM.
The corresponding values for `CC(C)c1cccc(C(C)C)c1NC(=O)NS(=O)(=O)c1ccc(B2O[C@@H]3C[C@@H]4C[C@@H](C4(C)C)[C@]3(C)O2)cc1` [Example 4, N-((2,6-diisopropylphenyl)carbamoyl)-4-((3aS,4S,6S,7aR)-3a,5,5-trimethylhexahydro-4,6-methanobenzo[d][1,3,2]dioxaborol-2-yl)benzenesulfonamide] are greater than 10 µM and greater than 10 µM.
For the compound `CC(C)c1cccc(C(C)C)c1NC(=O)NS(=O)(=O)c1ccc(B(O)O)s1` [Example 5, (5-(N-((2,6-diisopropylphenyl)carbamoyl)sulfamoyl)thiophen-2-yl)boronic acid], in series [1], the CC50 at 72 h is greater than 10 µM. The EC50 in the series on IL-1β fell in the range of 1 to 10 µM.
The corresponding values for `Cc1ccc(S(=O)(=O)NC(=O)Nc2c(C(C)C)cccc2C(C)C)cc1B1OC(C)(C)C(C)(C)O1` [Example 6, N-((2,6-diisopropylphenyl)carbamoyl)-4-methyl-3-(4,4,5,5-tetramethyl-1,3,2-dioxaborolan-2-yl)benzenesulfonamide] are greater than 10 µM and 1 to 10 µM.
For `Cc1ccc(S(=O)(=O)NC(=O)Nc2c(C(C)C)cccc2C(C)C)cc1B(O)O` [Example 7, (5-(N-((2,6-diisopropylphenyl)carbamoyl)sulfamoyl)-2-methylphenyl)boronic acid] the same measures were greater than 10 µM and 1 to 10 µM.
The corresponding values for `COc1ccc(B(O)O)cc1S(=O)(=O)NC(=O)Nc1c(C(C)C)cccc1C(C)C` [Example 8, (3-(N-((2,6-diisopropylphenyl)carbamoyl)sulfamoyl)-4-methoxyphenyl)boronic acid] are greater than 10 µM and greater than 10 µM.
As to `COc1ccc(B2OC(C)(C)C(C)(C)O2)cc1S(=O)(=O)NC(=O)Nc1c(C(C)C)cccc1C(C)C` [Example 9, N-((2,6-diisopropylphenyl)carbamoyl)-2-methoxy-5-(4,4,5,5-tetramethyl-1,3,2-dioxaborolan-2-yl)benzenesulfonamide], the CC50 at 72 h in series [1] was greater than 10 µM. This compound also returned an EC50 in the series on IL-1β greater than 10 µM.
Regarding `O=C(Nc1c2c(cc3c1CCC3)CCC2)NS(=O)(=O)c1ccccc1B(O)O` [Example 10, (2-(N-((1,2,3,5,6,7-hexahydro-s-indacen-4-yl)carbamoyl)sulfamoyl)phenyl)boronic acid], the CC50 at 72 h in series [1] was greater than 10 µM. In the series on IL-1β, this compound registered an EC50 greater than 10 µM.
With `CC(C)c1cccc(C(C)C)c1NC(=O)NS(=O)(=O)c1ccccc1B(O)O` [Example 11, (2-(N-((2,6-diisopropylphenyl)carbamoyl)sulfamoyl)phenyl)boronic acid], the CC50 at 72 h in series [1] was greater than 10 µM. Further, in the series with IL-1β, the EC50 is greater than 10 µM.
Turning to `O=C(Nc1c2c(cc3c1CCC3)CCC2)NS(=O)(=O)c1ccc(B(O)O)s1` [Example 12, (5-(N-((1,2,3,5,6,7-hexahydro-s-indacen-4-yl)carbamoyl)sulfamoyl)thiophen-2-yl)boronic acid], the CC50 at 72 h in series [1] was greater than 10 µM. For the same compound, the EC50 in the series on IL-1β is 1 to 10 µM.
The corresponding values for `O=C(Nc1c2c(cc3c1CCC3)CCC2)NS(=O)(=O)c1ccc(B(O)O)cc1` [Example 13, (4-(N-((1,2,3,5,6,7-hexahydro-s-indacen-4-yl)carbamoyl)sulfamoyl)phenyl)boronic acid] are greater than 10 µM and 1 to 10 µM.
The corresponding values for `CC1(C)[C@@H]2CC3OB(c4ccc(S(=O)(=O)NC(=O)Nc5c6c(cc7c5CCC7)CCC6)cc4)O[C@@]3(C)[C@H]1C2` (stereo partly drawn) [Example 14, N-((1,2,3,5,6,7-hexahydro-s-indacen-4-yl)carbamoyl)-4-((3aS,4S,6S)-3a,5,5-trimethylhexahydro-4,6-methanobenzo[d][1,3,2]dioxaborol-2-yl)benzenesulfonamide] are greater than 10 µM and 1 to 10 µM.
`Cc1c(B(O)O)cccc1S(=O)(=O)NC(=O)Nc1c2c(cc3c1CCC3)CCC2` [Example 15, (3-(N-((1,2,3,5,6,7-hexahydro-s-indacen-4-yl)carbamoyl)sulfamoyl)-2-methylphenyl)boronic acid]: the CC50 at 72 h in series [1] was greater than 10 µM. In the series with IL-1β, this compound displayed an EC50 of 1 to 10 µM.
For `Cc1c(B2OC(C)(C)C(C)(C)O2)cccc1S(=O)(=O)NC(=O)Nc1c2c(cc3c1CCC3)CCC2` [Example 16, N-((1,2,3,5,6,7-hexahydro-s-indacen-4-yl)carbamoyl)-2-methyl-3-(4,4,5,5-tetramethyl-1,3,2-dioxaborolan-2-yl)benzenesulfonamide] the same measures were greater than 10 µM and 1 to 10 µM.
For `O=C(Nc1c2c(cc3c1CCC3)CCC2)NS(=O)(=O)c1ccc2c(c1)B(O)OC2` [Example 17, N-((1,2,3,5,6,7-hexahydro-s-indacen-4-yl)carbamoyl)-1-hydroxy-1,3-dihydrobenzo[c][1,2]oxaborole-6-sulfonamide] the same measures were greater than 10 µM and 1 to 10 µM.
`CC(C)c1cc(B2OC(C)(C)C(C)(C)O2)ccc1NC(=O)NS(=O)(=O)c1cnn(C(C)C)c1` [Example 18, 1-isopropyl-N-((2-isopropyl-4-(4,4,5,5-tetramethyl-1,3,2-dioxaborolan-2-yl)phenyl)carbamoyl)-1H-pyrazole-4-sulfonamide]: the CC50 at 72 h in series [1] is greater than 10 µM. The compound also showed an EC50 in the series with IL-1β greater than 10 µM.
For `CC(C)c1cc(B(O)O)ccc1NC(=O)NS(=O)(=O)c1cnn(C(C)C)c1` [Example 19, (3-isopropyl-4-(3-((1-isopropyl-1H-pyrazol-4-yl)sulfonyl)ureido)phenyl)boronic acid], in series [1], the CC50 at 72 h was greater than 10 µM. The compound further yielded an EC50 with IL-1β greater than 10 µM.
With `CC(C)n1cc(S(=O)(=O)NC(=O)Nc2cc(B3OC(C)(C)C(C)(C)O3)ccc2C2CC2)cn1` [Example 20, N-((2-cyclopropyl-5-(4,4,5,5-tetramethyl-1,3,2-dioxaborolan-2-yl)phenyl)carbamoyl)-1-isopropyl-1H-pyrazole-4-sulfonamide], the CC50 at 72 h in series [1] is greater than 10 µM. For the same compound, the EC50 in the series with IL-1β is greater than 10 µM.
Regarding `CC(C)n1cc(S(=O)(=O)NC(=O)Nc2cc(B(O)O)ccc2C2CC2)cn1` [Example 21, (4-cyclopropyl-3-(3-((1-isopropyl-1H-pyrazol-4-yl)sulfonyl)ureido)phenyl)boronic acid], the CC50 at 72 h in series [1] was in the range of 1 to 10 µM. Besides, in the series with IL-1β, the EC50 was greater than 10 µM.
The corresponding values for `CC(C)n1cc(S(=O)(=O)NC(=O)Nc2cc(B3OC(C)(C)C(C)(C)O3)ccc2C(C)(C)C)cn1` [Example 22, N-((2-(tert-butyl)-5-(4,4,5,5-tetramethyl-1,3,2-dioxaborolan-2-yl)phenyl)carbamoyl)-1-isopropyl-1H-pyrazole-4-sulfonamide] are greater than 10 µM and greater than 10 µM.
The corresponding values for `CC(C)n1cc(S(=O)(=O)NC(=O)Nc2cc(B(O)O)ccc2C(C)(C)C)cn1` [Example 23, (4-(tert-butyl)-3-(3-((1-isopropyl-1H-pyrazol-4-yl)sulfonyl)ureido)phenyl)boronic acid] are greater than 10 µM and greater than 10 µM.
In the case of `CC(C)c1cc(B(O)O)cc(C(C)C)c1NC(=O)NS(=O)(=O)c1cnn(C(C)C)c1` [Example 24, (3,5-diisopropyl-4-(3-((1-isopropyl-1H-pyrazol-4-yl)sulfonyl)ureido)phenyl)boronic acid], the CC50 at 72 h in series [1] is greater than 10 µM. In the series with IL-1β, this compound registered an EC50 of 1 to 10 µM.
